For one assay, the system named is GH level. Briefly: In vivo endocrine activity (GH release), subcutaneous administration. Conditions: rat, s.c. injection. The protocol:
Subcutaneous Administration. Adult male rats were used and anesthetized with pentobarbital (6 mg/100 g, b.w.), by i.p. injection. […] Blood samples were taken from the jugular vein 5, 15 and/or 30 minutes after the injection. The blood samples were centrifuged, plasma was removed and the GH level was measured by ELISA. The results are summarized in terms of potency in Table 9.

In assay [1] the target is T1, GHRH receptor (human pituitary membrane homogenates) (Homo sapiens, UniProt Q02643).
T1 sequence (Q02643 23-423): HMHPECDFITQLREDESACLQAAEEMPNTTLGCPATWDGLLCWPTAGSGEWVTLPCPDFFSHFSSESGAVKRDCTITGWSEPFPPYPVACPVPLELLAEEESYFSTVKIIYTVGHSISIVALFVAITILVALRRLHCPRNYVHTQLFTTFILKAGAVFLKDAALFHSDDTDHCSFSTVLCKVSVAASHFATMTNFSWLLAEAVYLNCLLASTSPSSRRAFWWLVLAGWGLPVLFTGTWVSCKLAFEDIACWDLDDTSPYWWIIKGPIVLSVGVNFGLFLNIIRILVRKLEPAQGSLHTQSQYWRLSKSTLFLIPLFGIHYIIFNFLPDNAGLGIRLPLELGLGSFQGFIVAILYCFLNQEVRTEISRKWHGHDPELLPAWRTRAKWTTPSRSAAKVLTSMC
Nature of the assay: GHRH receptor binding, ligand competition with 125I-labeled JV-1-42 (Table 7). The conditions noted are these: JI-38 = 1. Also noted: Normal human pituitaries were purchased from the National Hormone and Peptide Program; tissue National Hormone and Peptide Program (A. F. Parlow, Harbor-UCLA Medical Center, Torrance, Calif.); host or cells: normal human pituitary, membrane fraction / homogenate.

Non-standard residues stand in square brackets, D forms with d. Residues, ends and D or L forms follow the SMILES beside them. No end group written: not given here. *: point of attachment. NMeY = CN[C@@H](Cc1ccc(O)cc1)C(=O)O; Agmatine = N=C(N)NCCCCN*; Nle = CCCC[C@H](N)C(=O)O; Orn = NCCC[C@H](N)C(=O)O; Abu = CC[C@H](N)C(=O)O; Ava = NCCCCC(=O)O

Regarding `CCCC[C@H](NC(=O)[C@@H](NC(=O)[C@H](CC(=O)O)NC(=O)[C@H](CCC(N)=O)NC(=O)[C@H](CC(C)C)NC(=O)[C@H](CC(C)C)NC(=O)[C@H](CCCN)NC(=O)[C@H](CCCNC(=N)N)NC(=O)[C@H](C)NC(=O)[C@H](CO)NC(=O)[C@H](CC(C)C)NC(=O)[C@H](CCC(N)=O)NC(=O)[C@H](CC)NC(=O)[C@H](CC(C)C)NC(=O)[C@@H](NC(=O)[C@H](CCCN)NC(=O)[C@H](CCCNC(=N)N)NC(=O)[C@H](Cc1ccc(O)cc1)NC(=O)[C@H](CO)NC(=O)[C@H](CCC(N)=O)NC(=O)[C@@H](NC(=O)[C@H](Cc1ccccc1)NC(=O)[C@@H](NC(=O)[C@H](C)NC(=O)[C@H](CC(=O)O)NC(=O)[C@@H](C)NC(=O)[C@H](Cc1ccc(O)cc1)NC)[C@@H](C)CC)[C@@H](C)O)C(C)C)[C@@H](C)CC)C(=O)N[C@@H](CC(=O)O)C(=O)N[C@@H](CCCNC(=N)N)C(=O)NCCCCC(N)=O` [Peptide P-22325, [N—Me-Tyr^1, Gln^8, Orn^12, Abu^15, Orn^21, Nle^27, Asp^28, Apa^30]hGHRH (1-30)NH2] (H-[NMeY][dA]DAIFTQSYR[Orn]VL[Abu]QLSAR[Orn]LLQDI[Nle]DR[Ava]-NH2), the figures for the “GH releasing potency relative to JI-38 (=1)” value in the assay with GH level (5 min after), in the assay on GH level (15 min after) and in the assay on GH level (30 min after) were 0.33, 0.68 and 1.03, respectively. Also, the “Relative affinitiy (Binding potency) vs JI-38” value in assay [1] turned out to be 1.14.
As for `CCCC[C@H](NC(=O)[C@@H](NC(=O)[C@H](CC(=O)O)NC(=O)[C@H](CCC(N)=O)NC(=O)[C@H](CC(C)C)NC(=O)[C@H](CC(C)C)NC(=O)[C@H](CCCN)NC(=O)[C@H](CCCNC(=N)N)NC(=O)[C@H](C)NC(=O)[C@H](CO)NC(=O)[C@H](CC(C)C)NC(=O)[C@H](CCC(N)=O)NC(=O)[C@H](CC)NC(=O)[C@H](CC(C)C)NC(=O)[C@@H](NC(=O)[C@H](CCCN)NC(=O)[C@H](CCCNC(=N)N)NC(=O)[C@H](Cc1ccc(O)cc1)NC(=O)[C@H](CO)NC(=O)[C@H](CC(N)=O)NC(=O)[C@@H](NC(=O)[C@H](Cc1ccccc1)NC(=O)[C@@H](NC(=O)[C@H](C)NC(=O)[C@H](CC(=O)O)NC(=O)[C@@H](C)NC(=O)[C@H](Cc1ccc(O)cc1)NC)[C@@H](C)CC)[C@@H](C)O)C(C)C)[C@@H](C)CC)C(=O)N[C@@H](CC(=O)O)C(=O)N[C@@H](CCCNC(=N)N)C(=O)NCC` [Peptide P-28421, [N—Me-Tyr^1, D-Ala^2, Orn^12, Abu^15, Orn^21, Nle^27, Asp^28]hGHRH(1-29)NH—CH2—CH3] (H-[NMeY][dA]DAIFTNSYR[Orn]VL[Abu]QLSAR[Orn]LLQDI[Nle]DR-NHEt), the “Relative affinitiy (Binding potency) vs JI-38” value in assay [1] worked out at 2.96.
On to “[N—Me-Tyr^1, Gln^8, Orn^12, Abu^15, Orn^21, Nle^27, Agm^29]hGHRH(1-29) ([NMeY]ADAIFTQSYR[Orn]VL[Abu]QLSAR[Orn]LLQDI[Nle]S[Agmatine]) [Peptide P-20373]”, for which the figures for the “GH releasing potency relative to JI-38 (=1)” value with GH level (15 min after) and with GH level (30 min after) were 0.23 and 0.88, respectively.

These data come from patent publication US9393271B2, “GHRH agonists for islet cell transplantation and function and the treatment of diabetes” (UNIVERSITY OF MIAMI, priority 2012, dated 2016).
